This passage reports GI50 results from ChEMBL document CHEMBL1137391, “Synthesis and evaluation of indenoisoquinoline topoisomerase I inhibitors substituted with nitrogen heterocycles” (2006).

What all share (type): functional
For one assay, the system named is OVCAR-3. In words: Cytotoxicity against human OVCAR-3 cell line.
The test system of a further assay is HCT-116. In words: Cytotoxicity against human HCT116 cell line.
The test system of the next assay is DU-145. Description: Cytotoxicity against human DU145 cell line.
The next assay concerns HOP-62. In words: Cytotoxicity against human HOP62 cell line.
A further assay concerns SN12C. In words: Cytotoxicity against human SN12C cell line.
For another assay, the system named is SF-539. In words: Cytotoxicity against human SF539 cell line.
The next assay relates to UACC-62. Description: Cytotoxicity against human UACC62 cell line.
For the next assay, the system named is MDA-MB-435. Description: Cytotoxicity against human MDA-MB-435 cell line.

With `O=C1c2ccccc2-c2c1c1ccccc1c(=O)n2CCCn1ccnc1`, the GI50 with OVCAR-3 was found to be 1660 nM; in the assay on HCT-116 it was 1410 nM; in the assay with DU-145, 1410 nM; in the assay on HOP-62 it was 2690 nM; in the assay on SN12C, 1660 nM; in the assay with SF-539 it was 2340 nM. Further, halving of growth in the assay with UACC-62 (GI50) required 790 nM.

On to `COc1cc2c3c(n(CCCN4CCSCC4)c(=O)c2cc1OC)-c1cc2c(cc1C3=O)OCO2`, for which the GI50 was 34700 nM with OVCAR-3; more than 100000 nM in the assay on MDA-MB-435; 72400 nM in the assay on HCT-116; more than 100000 nM in the assay on DU-145; 26300 nM in the assay on HOP-62; 18200 nM in the assay with SF-539. For the same compound, halving of growth in the assay with UACC-62 (GI50) required 37200 nM.

As to `COc1cc2c3c(n(CCCNCCN4CCOCC4)c(=O)c2cc1OC)-c1cc2c(cc1C3=O)OCO2`, the GI50 in the assay on OVCAR-3 was 525 nM; with MDA-MB-435, 1950 nM; with HCT-116 it was less than 5 nM; in the assay on DU-145 it was 603 nM; in the assay on HOP-62, less than 5 nM; in the assay on SN12C, 1480 nM. Also, the 50% growth inhibitory concentration (GI50) in the assay on SF-539 came to 550 nM; with UACC-62, 162 nM.

For the compound `COc1cc2c3c(n(CCCN4CCN(CCO)CC4)c(=O)c2cc1OC)-c1cc2c(cc1C3=O)OCO2`, the GI50 in the assay with OVCAR-3 is 15100 nM; in the assay with MDA-MB-435 it was more than 100000 nM; with HCT-116 it was 2340 nM; with DU-145 it was 275 nM; with HOP-62 it was 9770 nM; with SN12C it was more than 100000 nM. For the same compound, the GI50 in the assay with SF-539 is 1440 nM; in the assay with UACC-62, 1230 nM.

With `COc1cc2c3c(n(CCCN4CCCNCC4)c(=O)c2cc1OC)-c1cc2c(cc1C3=O)OCO2`, the GI50 in the assay with OVCAR-3 is 5010 nM; in the assay on MDA-MB-435, 2630 nM; in the assay on HCT-116 it was 214 nM; in the assay with DU-145, 81 nM; in the assay with HOP-62 it was less than 5 nM; in the assay on SN12C it was 145 nM. In addition, the GI50 is 145 nM with SF-539 and 457 nM in the assay on UACC-62.

With `COc1cc2c3c(n(CCCNC4=NCCS4)c(=O)c2cc1OC)-c1cc2c(cc1C3=O)OCO2`, the GI50 in the assay with OVCAR-3 is 41 nM; in the assay with MDA-MB-435, less than 10 nM; with HCT-116, less than 10 nM; with DU-145, less than 10 nM; with HOP-62, less than 10 nM; in the assay on SN12C, less than 10 nM. The GI50 was less than 10 nM in the assay with SF-539 and 14 nM in the assay on UACC-62.

In the case of `COc1cc2c3c(n(CCCN4CCN(C)CC4)c(=O)c2cc1OC)-c1cc2c(cc1C3=O)OCO2`, the GI50 with OVCAR-3 is 15100 nM; with MDA-MB-435, more than 100000 nM; in the assay on HCT-116, 1480 nM; in the assay on DU-145 it was 10700 nM; in the assay on HOP-62 it was 18200 nM; with SN12C, 11500 nM. The values for the GI50 in the assay on SF-539 and with UACC-62 were 17800 nM and 15100 nM, respectively.

In the case of `COc1cc2c3c(n(CCCn4ccnc4)c(=O)c2cc1OC)-c1cc2c(cc1C3=O)OCO2`, the GI50 was 85 nM with OVCAR-3; 20 nM in the assay on MDA-MB-435; less than 10 nM in the assay with HCT-116; less than 10 nM with DU-145; less than 10 nM in the assay on HOP-62; less than 10 nM with SN12C. In addition, the values for the GI50 in the assay on SF-539 and with UACC-62 were 37 nM and less than 10 nM, respectively.

Take `COc1cc2c3c(n(CCCN4CCC(N)CC4)c(=O)c2cc1OC)-c1cc2c(cc1C3=O)OCO2`: the 50% growth inhibitory concentration (GI50) amounted to 832 nM with OVCAR-3; 1740 nM with MDA-MB-435; 120 nM with HCT-116; 182 nM in the assay with DU-145; 427 nM in the assay with HOP-62; 257 nM in the assay with SN12C. The concentration for 50% growth inhibition (GI50) in the assay with SF-539 was 100 nM; with UACC-62, 1290 nM.

As to `COc1cc2c3c(n(CCCN4CCNCC4)c(=O)c2cc1OC)-c1cc2c(cc1C3=O)OCO2`, the GI50 in the assay with OVCAR-3 is 2040 nM; with MDA-MB-435, 4570 nM; in the assay with HCT-116, 575 nM; in the assay on DU-145, 15 nM; in the assay with HOP-62 it was less than 5 nM; in the assay on SN12C it was 91 nM. Moreover, the 50% growth inhibitory concentration (GI50) in the assay with SF-539 is less than 5 nM; in the assay on UACC-62, 1200 nM.

`COc1cc2c3c(n(CCCn4cccn4)c(=O)c2cc1OC)-c1cc2c(cc1C3=O)OCO2`: the GI50 was 56200 nM with OVCAR-3; 7080 nM in the assay with MDA-MB-435; 1990 nM in the assay with HCT-116; 363 nM with DU-145; 447 nM with HOP-62; 316 nM in the assay on SN12C. Besides, the figures for the GI50 with SF-539 and in the assay on UACC-62 were 398 nM and 269 nM, respectively.

In the case of `COc1cc2c3c(n(CCCn4ccnc4)c(=O)c2cc1OC)-c1ccccc1C3=O`, the GI50 in the assay on OVCAR-3 was less than 10 nM; in the assay on MDA-MB-435, 14 nM; with HCT-116, less than 10 nM; in the assay on DU-145, less than 10 nM; in the assay on HOP-62, less than 10 nM; with SN12C, less than 10 nM. In addition, the GI50 in the assay on SF-539 and in the assay on UACC-62 was less than 10 nM in each case.

For `COc1cc2c3c(n(CCCN4CCCC(O)C4)c(=O)c2cc1OC)-c1cc2c(cc1C3=O)OCO2` (configuration not stated), the concentration for 50% growth inhibition (GI50) in the assay with OVCAR-3 is 5750 nM; in the assay with MDA-MB-435, 977 nM; with HCT-116 it was less than 5 nM; in the assay on DU-145, less than 5 nM; with HOP-62 it was less than 5 nM; in the assay on SN12C, 126 nM. Also, the GI50 with SF-539 is less than 5 nM; in the assay with UACC-62 it was 5010 nM.

`O=C1c2ccccc2-c2c1c1ccc([N+](=O)[O-])cc1c(=O)n2CCCn1ccnc1`: the 50% growth inhibitory concentration (GI50) in the assay with OVCAR-3 was found to be 864 nM; in the assay with MDA-MB-435, 2170 nM; with HCT-116 it was 274 nM; in the assay with DU-145, 17 nM; with HOP-62, 190 nM; with SN12C, 15 nM. Besides, the figures for the GI50 in the assay on SF-539 and in the assay on UACC-62 were 16 nM and 12 nM, respectively.

In the case of `COc1cc2c3c(n(CCCn4cncn4)c(=O)c2cc1OC)-c1cc2c(cc1C3=O)OCO2`, the GI50 in the assay with OVCAR-3 is 61700 nM; in the assay on MDA-MB-435 it was more than 100000 nM; in the assay on HCT-116, 1910 nM; with DU-145, 85 nM; with HOP-62 it was 79 nM; in the assay with SN12C it was 85 nM. Moreover, the GI50 is 288 nM in the assay with SF-539 and less than 10 nM in the assay on UACC-62.

In the case of `COc1cc2c3c(n(C)c(=O)c2cc1OC)-c1cc2c(cc1C3=O)OCO2`, the GI50 in the assay on MDA-MB-435 stood at 96000 nM; in the assay on HCT-116, 35000 nM; with DU-145 it was 37000 nM; in the assay on HOP-62, 1300 nM; in the assay with SN12C it was 68000 nM; in the assay with UACC-62 it was 4200 nM.

As for `COc1cc2c3c(n(CCCN4CCOCC4)c(=O)c2cc1OC)-c1cc2c(cc1C3=O)OCO2` [INDOTECAN], the GI50 with OVCAR-3 worked out at 74100 nM; with MDA-MB-435, 67600 nM; with HCT-116 it was 1150 nM; in the assay on DU-145, 155 nM; with HOP-62 it was 1780 nM; with SN12C it was 813 nM. The GI50 in the assay with SF-539 was 40 nM; in the assay with UACC-62, 30 nM.

Broadly, the GI50 is the concentration at which growth is held to half of that of the control. Higher therefore signals lower sensitivity of the cells.
